This note sets out measurements from ChEMBL document CHEMBL3632497, “Insights into Structure-Activity Relationships of Bacterial RNA Polymerase Inhibiting Corallopyronin Derivatives” (2015).

Assay [1] concerns Wolbachia. Briefly: Antibacterial activity against Wolbachia. In kind it is functional.
In another assay the test system is Priestia megaterium. Briefly: Antibacterial activity against Bacillus megaterium. In kind it is functional.
The subject of the next assay is Escherichia coli. In words: Antibacterial activity against Escherichia coli. In kind it is functional, organism-based.
The subject of another assay is Micrococcus luteus. Briefly: Antibacterial activity against Micrococcus luteus ATCC 4698 after 24 hrs. In kind it is functional. The settings on record: ATCC 4698, 24 h.
Assay [2] concerns Staphylococcus aureus. In words: Antibacterial activity against Staphylococcus aureus SG511 after 24 hrs. In kind it is functional. The settings on record: SG511, 24 h.
The subject of assay [3] is Mycolicibacterium smegmatis. In words: Antibacterial activity against Mycobacterium smegmatis after 24 hrs. In kind it is functional.
In the next assay the test system is Bacillus subtilis. Briefly: Antibacterial activity against Bacillus subtilis 168 after 24 hrs. In kind it is functional. To be noted: subsp. subtilis str. 168, 24 h.
In assay [4] the test system is Wolbachia. In words: Antibacterial activity against Wolbachia infected in C6/36 cells assessed as decrease in 16s rRNA copies at 0.01, 0.1 and 0.5 microg/ml by qPCR analysis. In kind it is functional, cell-based. (In general: Quantitative PCR measures a nucleic acid by following its amplification.)
Assay [5] deals with Bacillus licheniformis. Briefly: Antibacterial activity against Bacillus licheniformis DSM13 after 24 hrs. To be noted: DSM 13 = ATCC 14580, 24 h. In kind it is functional.
The test system of the next assay is Staphylococcus simulans. Briefly: Antibacterial activity against Staphylococcus simulans 22 after 24 hrs. In kind it is functional. The settings on record: Staphylococcus simulans, 22, 24 h.
A further assay deals with Bacillus cereus. In words: Antibacterial activity against Bacillus cereus after 24 hrs. In kind it is functional.
In another assay the test system is Mycolicibacterium phlei. In words: Antibacterial activity against Mycobacterium phlei after 24 hrs. In kind it is functional.
For assay [6], the system named is Bacillus licheniformis. Briefly: Antibacterial activity against Bacillus licheniformis MW3 after 24 hrs. In kind it is functional. To be noted: MW3, 24 h.
In assay [7] the test system is Staphylococcus aureus. Briefly: Antibacterial activity against Staphylococcus aureus. In kind it is functional.
Assay [8] has as its system Wolbachia. Briefly: Antibacterial activity against Wolbachia infected in C6/36 cells assessed as decrease in 16s rRNA copies by qPCR analysis. In kind it is functional, cell-based.

Converted amounts (≈) assume the structure as drawn. The source made the active and inactive calls. No cut-off for these calls is given here.

With `CCCCCCCCCCCCC/C=C/[C@@H](O)[C@H](CO)NC(=O)CCCCCCNC(=O)OC`, the outcome with Wolbachia [1], in the assay with Priestia megaterium and with Escherichia coli was inactive.

`C/C=C/C/C=C(/C)CCC/C(C)=C/C=C(\C)C(=O)c1c(O)cc([C@H](C)CC/C=C/NC(=O)OC)oc1=O`: the MIC (commonly the least concentration at which growth counts as inhibited) in the assay on Micrococcus luteus was 4 µg/mL (≈ 7.82 µM); in the assay on Staphylococcus aureus [2], 2 µg/mL (≈ 3.91 µM); in assay [3], > 64 µg/mL; with Bacillus subtilis it was 32 µg/mL (≈ 62.5 µM); against Bacillus licheniformis [5], 4 µg/mL (≈ 7.82 µM); in the assay on Staphylococcus simulans, 4 µg/mL (≈ 7.82 µM). Besides, inhibition of growth against Bacillus cereus (MIC) required 2 µg/mL (≈ 3.91 µM). Besides, the inhibition entry in the assay with Wolbachia [4] was “Active”.

For the compound `C/C=C/C/C=C(/C)[C@@H](CC/C(C)=C/C=C(\C)C(=O)c1c(O)cc([C@H](C)CC/C=C/NC(=O)OC)oc1=O)OC(=O)c1ccccc1`, the MIC was > 64 µg/mL against Mycolicibacterium phlei, 64 µg/mL (≈ 101 µM) against Bacillus licheniformis [6] and > 64 µg/mL in the assay with Staphylococcus simulans.

Consider `C/C=C/C/C=C(/C)C(=O)CC/C(C)=C/C=C(\C)C(=O)c1c(O)cc([C@H](C)CC/C=C/NC(=O)OC)oc1=O`, for which the MIC was determined as 32 µg/mL (≈ 60.9 µM) in the assay with Bacillus licheniformis [6] and 16 µg/mL (≈ 30.4 µM) against Staphylococcus simulans.

As for `C/C=C/C/C=C(/C)[C@@H](CC/C(C)=C/C=C(\C)C(=O)c1c(O)cc([C@H](C)CC/C=C/NC(=O)OC)oc1=O)OC(=O)c1ccco1`, the minimal inhibitory concentration (MIC) with Mycolicibacterium phlei was > 64 µg/mL; in the assay on Bacillus licheniformis [6] it was 64 µg/mL (≈ 103 µM); against Staphylococcus simulans, 64 µg/mL (≈ 103 µM).

`C/C=C/C/C=C(/C)[C@@H](CC/C(C)=C/C=C(\C)C(=O)c1c(O)cc([C@H](C)CC/C=C/NC(=O)OC)oc1=O)OC(C)=O`: the MIC in the assay with Mycolicibacterium phlei is > 64 µg/mL; in the assay on Bacillus licheniformis [6], 64 µg/mL (≈ 112 µM); against Staphylococcus simulans, 64 µg/mL (≈ 112 µM).

As for `C/C=C/C/C=C(/C)C1CCC(C)(C/C=C(\C)C(=O)c2c(O)cc([C@H](C)CC/C=C/NC(=O)OC)oc2=O)O1` (some centres not stated), the MIC worked out at 1.6 µg/mL (≈ 3.03 µM) with Priestia megaterium and 0.4 µg/mL (≈ 0.758 µM) in the assay on Staphylococcus aureus [7].

Take `C/C=C/C/C=C(/C)[C@@H](CC/C(C)=C/C=C(\C)C(=O)c1c(O)cc([C@H](C)CC/C=C/NC(=O)OC)oc1=O)OC(=O)c1cccs1`: the MIC against Bacillus licheniformis [6] and in the assay with Staphylococcus simulans was > 64 µg/mL each time.

Consider `C/C=C/C/C=C(/C)C(O)CC/C(C)=C\C=C(/C)C(=O)c1c(O)cc([C@H](C)CC/C=C/NC(=O)OC)oc1=O` (some centres not stated), for which the MIC with Priestia megaterium worked out at 0.8 µg/mL (≈ 1.52 µM); in the assay with Staphylococcus aureus [7], 0.1 µg/mL (≈ 0.19 µM).

Turning to `C/C=C/C/C=C(/C)[C@@H](CC/C(C)=C/C=C(\C)C(=O)c1c(O)cc([C@H](C)CC/C=C/NC(=O)OC)oc1=O)OC(=O)CCCCCCCCC`, the values for the MIC in the assay with Bacillus licheniformis [6] and against Staphylococcus simulans were 64 µg/mL (≈ 93.9 µM) and > 64 µg/mL, respectively.

With `C/C=C/C/C=C(\C)C(O)CC/C(C)=C/C=C(\C)C(=O)c1c(O)cc([C@H](C)CC/C=C/NC(=O)OC)oc1=O` (some centres not stated) [CORALLOPYRONIN A], the minimal inhibitory concentration (MIC) was > 64 µg/mL against Mycolicibacterium phlei; 1 µg/mL (≈ 1.9 µM) against Micrococcus luteus; 0.5 µg/mL (≈ 0.948 µM) against Staphylococcus aureus [2]; > 64 µg/mL in assay [3]; 16 µg/mL (≈ 30.3 µM) against Bacillus subtilis; 64 µg/mL (≈ 121 µM) in the assay on Bacillus licheniformis [6]. For the same compound, the MIC against Bacillus licheniformis [5] came to 2 µg/mL (≈ 3.79 µM); against Staphylococcus simulans, 1 µg/mL (≈ 1.9 µM); with Bacillus cereus it was 2 µg/mL (≈ 3.79 µM). Further, the inhibition result with Wolbachia [8] is “Dose-dependent effect”.

For `C/C=C/C/C=C(/C)[C@@H](CC/C(C)=C/C=C(\C)C(=O)c1c(O)cc([C@H](C)CC/C=C/NC(=O)OC)oc1=O)OC(=O)COC(C)=O`, the minimum inhibitory concentration (MIC) against Bacillus licheniformis [6] and in the assay on Staphylococcus simulans was > 64 µg/mL each time.

Regarding `C/C=C/C/C=C(/C)[C@@H](CC/C(C)=C/C=C(\C)C(=O)c1c(O)cc([C@H](C)CC/C=C/NC(=O)OC)oc1=O)OC(=O)[C@@](OC)(c1ccccc1)C(F)(F)F`, the values for the MIC in the assay with Mycolicibacterium phlei, in the assay with Bacillus licheniformis [6] and against Staphylococcus simulans were > 64 µg/mL, > 16 µg/mL and 64 µg/mL (≈ 86 µM), respectively.

As for `C/C=C/C/C=C(/C)[C@@H](CC/C(C)=C/C=C(\C)C(=O)c1c(O)cc([C@H](C)CC/C=C/NC(=O)OC)oc1=O)OC(=O)c1ccc(F)cc1`, the MIC with Bacillus licheniformis [6] and against Staphylococcus simulans was > 64 µg/mL throughout.

Consider `C/C=C/C/C=C(/C)[C@@H](CC/C(C)=C/C=C(\C)C(=O)c1c(O)cc([C@H](C)CC/C=C/NC(=O)OC)oc1=O)OC(=O)[C@](OC)(c1ccccc1)C(F)(F)F`, for which the values for the MIC in the assay on Mycolicibacterium phlei, against Bacillus licheniformis [6] and with Staphylococcus simulans were > 64 µg/mL, > 16 µg/mL and 32 µg/mL (≈ 43 µM), respectively.

As to `CC/C=C/C/C=C(/C)[C@H](O)CC/C(C)=C/C=C(\C)C(=O)c1c(O)cc([C@H](C)CC/C=C/NC(=O)OC)oc1=O`, the values for the MIC against Priestia megaterium and against Staphylococcus aureus [7] were 1.6 µg/mL (≈ 2.95 µM) and 0.4 µg/mL (≈ 0.738 µM), respectively.
